The text below walks through data of patent publication US20250312296A1, “PETROLATUM-BASED PHMB COMPOSITIONS AND METHODS FOR THE TREATMENT OF INFLAMMATORY SKIN DISEASE” (GLOBAL HEALTH SOLUTIONS, INC., priority 2020, published 2025).

Structures are written as SMILES. Where “and” joins values, the source holds several entries; their conditions need not be identical. Equal values may be shown once.

The test system of the series is Rabbit Skin. As to the kind of experiment: Rabbit skin irritation. As to the method:
Within 24 hours to 4 hours before test application, the backs of female albino New Zealand White rabbits were clipped free of hair, exposing 2 test and 2 control areas on each side of the spine with a size of approximately 15 cm×15 cm. The two test sites are located on the left cranial section and the right caudal section of the dorsal region. The two control sites are located on the left caudal and right cranial section of the dorsal region. FIG. 4 depicts the arrangement of test and control sites. The exposed skin is wiped with alcohol and dried. Rabbits of acceptable skin quality were selected and used for testing.
A 25×25 mm gauze patch saturated with 0.5 mL of 0.9% NaCl is used for the control and applied to the clipped control sites. The patches are secured using hypoallergenic, waterproof, surgical tape over the test and control sites. The animal's trunk is securely wrapped so as to maintain the position of the patches. Patches are left applied for a minimum of four hours.
After patch removal, the test and control sites were then scored for erythema and edema at 1, 24, 48 and 72 hours after patch removal. Only the 24, 48, and 72 hour observations were scored and used for calculations. If no response was expected, testing was conducted using three animals per test article. If irritation was anticipated, one animal was tested initially. If the first animal received a score of 2 or less for either erythema or edema, 2 additional rabbits were used to conclude the test.
This total was divided by the total number of observations. The same was done for the control sites. […] These scores for each animal were added and divided by the total number of animals to give the Primary Irritation Index. […] For any response, the Maximum Irritation Response, the time of onset of the response and the time of maximum response was recorded.
To positively validate the test, 10% sodium dodecyl sulfate (SDS), which is a known dermal irritant, in petroleum jelly was applied to a 2.5 cm×2.5 cm gauze patch. As a negative control, 0.5 mL of 0.9% NaCl was applied to a 2.5 cm×2.5 cm gauze patch. A Primary Irritation Index in the moderate to severe range is considered a positive result. The test system and methods utilized were the same as described above.

The mark [1] stands for this setting: per rabbit, scores of 24, 48 and 72 hour observations added, patch at least four hours, sulfate.

Take `CCCCCCCCCCCCOS(=O)(=O)[O-].[Na+]` [10% SDS, sodium dodecyl sulfate]: the “Primary Irritation Index” value (3 animals, 0-0.4 Negligible, 0.5-1.9 Slight, 2-4.9 Moderate, 5-8 Severe) was “Total Average (19.3) = 6.4 Primary Irritation Index”. Also, under setting [1], the “ED (edema) score” value is 19 and 21 and 14; the “ER (erythema) score” value was 21 and 23 and 18. For the same molecule, for the setting “per rabbit, scores of 24, 48 and 72 hour observations added, sulfate”, the “ER + ED = Total” value is 40 and 44 and 32.
